Assay results reported in ChEMBL document CHEMBL5291721, “A preclinical secondary pharmacology resource illuminates target-adverse drug reaction associations of marketed drugs” (Nat Commun, 2023).

Legend:
[1] = biological target: T1, Adenosine receptor A3 (Homo sapiens, UniProt P0DMS8)
T1 sequence (P0DMS8 whole entry): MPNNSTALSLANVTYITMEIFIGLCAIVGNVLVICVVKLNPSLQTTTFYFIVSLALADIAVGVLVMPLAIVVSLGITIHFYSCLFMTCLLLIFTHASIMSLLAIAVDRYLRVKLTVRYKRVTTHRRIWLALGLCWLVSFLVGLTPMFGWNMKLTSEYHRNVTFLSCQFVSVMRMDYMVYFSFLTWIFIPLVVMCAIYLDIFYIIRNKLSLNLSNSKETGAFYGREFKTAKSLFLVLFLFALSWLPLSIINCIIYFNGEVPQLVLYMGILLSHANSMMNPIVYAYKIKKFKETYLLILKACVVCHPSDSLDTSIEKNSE

[2] = biological target: T2, Type-1 angiotensin II receptor (Homo sapiens, UniProt P30556)
T2 sequence (P30556 whole entry): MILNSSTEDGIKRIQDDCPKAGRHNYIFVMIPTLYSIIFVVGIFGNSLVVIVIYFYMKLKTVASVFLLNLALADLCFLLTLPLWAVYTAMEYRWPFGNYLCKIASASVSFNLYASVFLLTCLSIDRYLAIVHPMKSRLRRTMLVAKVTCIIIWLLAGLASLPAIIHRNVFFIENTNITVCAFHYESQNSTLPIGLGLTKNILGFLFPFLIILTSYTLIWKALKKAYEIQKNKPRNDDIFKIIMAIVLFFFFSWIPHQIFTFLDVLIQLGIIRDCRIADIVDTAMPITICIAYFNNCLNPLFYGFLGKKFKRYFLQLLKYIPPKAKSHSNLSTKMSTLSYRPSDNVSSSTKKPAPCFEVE

[3] = biological target: Vasopressin V1a receptor (Homo sapiens, UniProt P37288)
[4] = biological target: Vasopressin V2 receptor (Homo sapiens, UniProt P30518)
[5] = biological target: Muscarinic acetylcholine receptor M3 (Homo sapiens, UniProt P20309)
[6] = biological target: Neuronal acetylcholine receptor subunit alpha-4 (Homo sapiens, UniProt P43681)
[7] = biological target: Growth hormone secretagogue receptor type 1 (Homo sapiens, UniProt Q92847)
[8] = biological target: Glutamate receptor ionotropic, NMDA 1 (Rattus norvegicus, UniProt P35439)
[9] = biological target: 5-hydroxytryptamine receptor 2A (Homo sapiens, UniProt P28223); format: functional, cell-based
[10] = biological target: T3, Progesterone receptor (Homo sapiens, UniProt P06401); format: functional
T3 sequence (P06401 whole entry): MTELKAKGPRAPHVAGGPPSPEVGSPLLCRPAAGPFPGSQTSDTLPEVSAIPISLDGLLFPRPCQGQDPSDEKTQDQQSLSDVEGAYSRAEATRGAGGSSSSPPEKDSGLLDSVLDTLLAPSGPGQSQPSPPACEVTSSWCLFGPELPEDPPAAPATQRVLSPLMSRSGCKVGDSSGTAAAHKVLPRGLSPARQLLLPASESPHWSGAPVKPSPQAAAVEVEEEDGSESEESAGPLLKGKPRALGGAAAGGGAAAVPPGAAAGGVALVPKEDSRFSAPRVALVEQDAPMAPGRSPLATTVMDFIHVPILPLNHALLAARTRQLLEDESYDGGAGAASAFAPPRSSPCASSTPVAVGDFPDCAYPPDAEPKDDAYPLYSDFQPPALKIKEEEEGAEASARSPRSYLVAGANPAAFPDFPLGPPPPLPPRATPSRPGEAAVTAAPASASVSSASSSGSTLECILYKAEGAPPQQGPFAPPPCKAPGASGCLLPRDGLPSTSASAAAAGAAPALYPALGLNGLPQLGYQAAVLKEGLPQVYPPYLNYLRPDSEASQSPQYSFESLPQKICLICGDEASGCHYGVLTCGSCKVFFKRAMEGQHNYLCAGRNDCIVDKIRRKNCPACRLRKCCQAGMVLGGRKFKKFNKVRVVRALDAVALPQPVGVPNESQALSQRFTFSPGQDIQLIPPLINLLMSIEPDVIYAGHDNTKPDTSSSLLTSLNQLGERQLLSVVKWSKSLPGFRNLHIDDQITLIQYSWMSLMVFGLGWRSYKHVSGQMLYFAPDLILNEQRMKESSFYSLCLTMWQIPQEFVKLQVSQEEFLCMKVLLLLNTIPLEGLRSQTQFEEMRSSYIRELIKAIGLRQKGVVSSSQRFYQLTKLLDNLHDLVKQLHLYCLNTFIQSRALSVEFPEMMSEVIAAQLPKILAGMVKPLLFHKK

[11] = biological target: Sodium-dependent dopamine transporter (Homo sapiens, UniProt Q01959)
[12] = biological target: Mu-type opioid receptor (Homo sapiens, UniProt P35372)
[13] = biological target: T4, Amine oxidase [flavin-containing] A (Homo sapiens, UniProt P21397); format: functional
T4 sequence (P21397 whole entry): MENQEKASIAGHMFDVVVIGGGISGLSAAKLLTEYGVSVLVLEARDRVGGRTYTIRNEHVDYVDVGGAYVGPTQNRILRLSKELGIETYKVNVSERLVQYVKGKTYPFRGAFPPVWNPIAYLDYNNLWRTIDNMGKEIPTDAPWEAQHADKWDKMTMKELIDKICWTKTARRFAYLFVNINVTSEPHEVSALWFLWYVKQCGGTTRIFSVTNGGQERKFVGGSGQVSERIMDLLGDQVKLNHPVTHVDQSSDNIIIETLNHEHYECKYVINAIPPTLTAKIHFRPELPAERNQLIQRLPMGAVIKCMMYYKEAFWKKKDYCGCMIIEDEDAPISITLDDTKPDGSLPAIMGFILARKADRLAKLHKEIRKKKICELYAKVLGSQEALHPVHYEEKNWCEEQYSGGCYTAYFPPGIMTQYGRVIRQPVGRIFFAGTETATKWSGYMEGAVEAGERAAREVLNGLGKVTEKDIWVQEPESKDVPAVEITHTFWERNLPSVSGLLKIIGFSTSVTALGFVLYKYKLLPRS

[14] = biological target: Melanocortin receptor 4 (Homo sapiens, UniProt P32245)
Also: assay procedure not described here.

Sequence of 5-hydroxytryptamine receptor 2A (P28223 whole entry): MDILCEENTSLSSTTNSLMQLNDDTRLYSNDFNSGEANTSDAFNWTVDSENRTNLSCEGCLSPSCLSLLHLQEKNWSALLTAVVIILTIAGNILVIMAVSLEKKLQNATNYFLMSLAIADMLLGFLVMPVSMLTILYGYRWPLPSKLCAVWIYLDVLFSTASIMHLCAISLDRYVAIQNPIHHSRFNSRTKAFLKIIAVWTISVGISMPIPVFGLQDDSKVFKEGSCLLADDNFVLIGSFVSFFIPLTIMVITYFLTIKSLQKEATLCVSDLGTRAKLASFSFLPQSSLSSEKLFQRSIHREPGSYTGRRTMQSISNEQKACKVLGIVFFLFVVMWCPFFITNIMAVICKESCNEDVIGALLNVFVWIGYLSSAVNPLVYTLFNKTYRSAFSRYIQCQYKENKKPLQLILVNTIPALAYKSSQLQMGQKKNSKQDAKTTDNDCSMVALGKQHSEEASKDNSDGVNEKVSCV
Sequence of Growth hormone secretagogue receptor type 1 (Q92847 whole entry): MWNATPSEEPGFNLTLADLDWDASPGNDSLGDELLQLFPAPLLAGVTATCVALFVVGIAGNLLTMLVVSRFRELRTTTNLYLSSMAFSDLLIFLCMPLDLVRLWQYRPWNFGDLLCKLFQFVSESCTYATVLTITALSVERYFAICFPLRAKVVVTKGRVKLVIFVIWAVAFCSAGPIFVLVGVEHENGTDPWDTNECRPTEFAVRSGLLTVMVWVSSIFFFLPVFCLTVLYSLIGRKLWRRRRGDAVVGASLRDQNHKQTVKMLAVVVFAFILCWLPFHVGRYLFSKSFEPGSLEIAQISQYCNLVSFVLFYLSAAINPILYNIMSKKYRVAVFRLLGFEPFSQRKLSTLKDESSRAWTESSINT
Sequence of Vasopressin V1a receptor (P37288 whole entry): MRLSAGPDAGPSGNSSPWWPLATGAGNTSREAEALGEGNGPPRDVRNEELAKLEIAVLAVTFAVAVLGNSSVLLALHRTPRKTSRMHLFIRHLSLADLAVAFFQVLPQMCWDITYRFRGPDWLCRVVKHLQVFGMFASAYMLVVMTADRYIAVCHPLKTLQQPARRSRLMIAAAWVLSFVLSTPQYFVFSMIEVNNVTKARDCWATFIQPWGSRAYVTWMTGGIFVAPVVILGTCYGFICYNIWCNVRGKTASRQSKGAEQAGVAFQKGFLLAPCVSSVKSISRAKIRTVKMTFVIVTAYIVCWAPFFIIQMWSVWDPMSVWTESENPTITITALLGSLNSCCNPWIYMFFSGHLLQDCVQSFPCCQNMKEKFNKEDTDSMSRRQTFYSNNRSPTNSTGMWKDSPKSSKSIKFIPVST
Sequence of Muscarinic acetylcholine receptor M3 (P20309 whole entry): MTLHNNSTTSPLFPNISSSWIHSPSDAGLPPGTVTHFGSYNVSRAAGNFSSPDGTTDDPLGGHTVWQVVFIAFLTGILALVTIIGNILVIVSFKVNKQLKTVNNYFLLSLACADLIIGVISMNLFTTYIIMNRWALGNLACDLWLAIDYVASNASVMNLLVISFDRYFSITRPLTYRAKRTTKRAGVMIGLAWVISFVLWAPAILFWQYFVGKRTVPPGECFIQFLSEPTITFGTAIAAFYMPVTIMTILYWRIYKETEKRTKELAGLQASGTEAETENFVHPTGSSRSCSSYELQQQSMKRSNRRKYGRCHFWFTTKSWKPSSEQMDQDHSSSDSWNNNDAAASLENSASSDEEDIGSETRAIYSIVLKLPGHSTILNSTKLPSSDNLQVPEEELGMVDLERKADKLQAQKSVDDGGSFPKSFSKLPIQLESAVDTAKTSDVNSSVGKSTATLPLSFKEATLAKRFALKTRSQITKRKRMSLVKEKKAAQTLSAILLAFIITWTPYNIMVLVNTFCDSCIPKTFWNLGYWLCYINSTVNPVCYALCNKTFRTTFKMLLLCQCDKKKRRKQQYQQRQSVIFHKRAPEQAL
Sequence of Sodium-dependent dopamine transporter (Q01959 whole entry): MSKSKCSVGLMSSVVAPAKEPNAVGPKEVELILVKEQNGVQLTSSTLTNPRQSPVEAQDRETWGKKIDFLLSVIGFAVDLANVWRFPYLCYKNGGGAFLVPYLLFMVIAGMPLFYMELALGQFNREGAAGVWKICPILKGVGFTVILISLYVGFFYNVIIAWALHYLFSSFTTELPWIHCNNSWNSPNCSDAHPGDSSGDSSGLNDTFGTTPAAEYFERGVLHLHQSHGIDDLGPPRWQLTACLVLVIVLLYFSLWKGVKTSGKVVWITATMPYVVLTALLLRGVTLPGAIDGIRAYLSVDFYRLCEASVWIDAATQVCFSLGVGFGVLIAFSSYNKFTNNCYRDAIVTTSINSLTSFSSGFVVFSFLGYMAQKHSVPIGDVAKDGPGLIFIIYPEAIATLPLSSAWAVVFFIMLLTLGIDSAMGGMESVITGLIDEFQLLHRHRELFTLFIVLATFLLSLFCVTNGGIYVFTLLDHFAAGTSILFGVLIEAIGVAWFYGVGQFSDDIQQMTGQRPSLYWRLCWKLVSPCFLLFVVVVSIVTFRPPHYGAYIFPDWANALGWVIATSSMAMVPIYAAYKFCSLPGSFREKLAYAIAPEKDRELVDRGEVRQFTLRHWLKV
Sequence of Melanocortin receptor 4 (P32245 whole entry): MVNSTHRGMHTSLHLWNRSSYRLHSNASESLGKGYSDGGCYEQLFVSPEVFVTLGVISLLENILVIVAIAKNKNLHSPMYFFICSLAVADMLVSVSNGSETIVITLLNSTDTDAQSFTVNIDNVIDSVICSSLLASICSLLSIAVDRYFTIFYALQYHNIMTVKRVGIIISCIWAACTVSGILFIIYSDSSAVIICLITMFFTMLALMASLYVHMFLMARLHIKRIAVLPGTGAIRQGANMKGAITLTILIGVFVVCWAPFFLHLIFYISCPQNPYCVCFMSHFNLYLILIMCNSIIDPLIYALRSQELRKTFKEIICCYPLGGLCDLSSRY
Sequence of Vasopressin V2 receptor (P30518 whole entry): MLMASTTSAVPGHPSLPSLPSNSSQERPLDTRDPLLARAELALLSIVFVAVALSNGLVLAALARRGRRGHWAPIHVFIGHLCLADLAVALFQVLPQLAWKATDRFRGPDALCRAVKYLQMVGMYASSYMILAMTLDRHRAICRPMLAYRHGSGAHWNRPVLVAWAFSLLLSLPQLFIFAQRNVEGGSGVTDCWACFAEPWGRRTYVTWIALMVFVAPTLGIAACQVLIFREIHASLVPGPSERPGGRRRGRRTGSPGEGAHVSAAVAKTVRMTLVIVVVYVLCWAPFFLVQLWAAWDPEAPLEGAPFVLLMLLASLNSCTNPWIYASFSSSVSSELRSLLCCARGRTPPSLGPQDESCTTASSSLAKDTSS
Sequence of Mu-type opioid receptor (P35372 whole entry): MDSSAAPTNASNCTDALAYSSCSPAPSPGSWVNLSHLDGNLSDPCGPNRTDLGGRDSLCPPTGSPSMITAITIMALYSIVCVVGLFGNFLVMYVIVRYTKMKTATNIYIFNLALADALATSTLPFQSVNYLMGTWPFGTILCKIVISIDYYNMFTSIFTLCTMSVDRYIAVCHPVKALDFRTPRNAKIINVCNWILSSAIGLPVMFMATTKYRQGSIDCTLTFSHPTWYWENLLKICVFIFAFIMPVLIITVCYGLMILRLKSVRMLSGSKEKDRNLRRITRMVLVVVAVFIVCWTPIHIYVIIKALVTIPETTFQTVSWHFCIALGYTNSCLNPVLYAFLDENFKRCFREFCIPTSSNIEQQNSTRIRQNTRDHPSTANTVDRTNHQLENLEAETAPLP
Sequence of Neuronal acetylcholine receptor subunit alpha-4 (P43681 whole entry): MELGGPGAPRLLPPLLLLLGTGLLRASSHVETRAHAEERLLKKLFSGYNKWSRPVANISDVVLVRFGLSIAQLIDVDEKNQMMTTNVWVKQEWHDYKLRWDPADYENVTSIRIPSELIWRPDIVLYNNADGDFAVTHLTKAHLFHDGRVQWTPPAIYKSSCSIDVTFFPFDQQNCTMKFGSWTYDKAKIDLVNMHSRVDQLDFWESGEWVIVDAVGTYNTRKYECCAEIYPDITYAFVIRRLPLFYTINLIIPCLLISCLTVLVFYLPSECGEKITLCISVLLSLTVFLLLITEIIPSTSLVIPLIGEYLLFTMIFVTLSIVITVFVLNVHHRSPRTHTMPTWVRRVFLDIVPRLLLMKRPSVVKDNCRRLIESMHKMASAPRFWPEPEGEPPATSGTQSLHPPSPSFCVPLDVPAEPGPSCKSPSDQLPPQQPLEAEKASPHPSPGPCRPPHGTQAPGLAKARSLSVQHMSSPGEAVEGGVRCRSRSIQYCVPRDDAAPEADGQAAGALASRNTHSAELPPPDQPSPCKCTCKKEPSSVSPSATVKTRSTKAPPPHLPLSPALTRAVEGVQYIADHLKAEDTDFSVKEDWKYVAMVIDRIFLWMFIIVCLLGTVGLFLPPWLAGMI

Row | SMILES | AC50 [1] | AC50 [2] | AC50 [3] | AC50 [4] | AC50 [5] | AC50 [6] | AC50 [7] | AC50 [8] | AC50 [9] | AC50 [10] | AC50 [11] | AC50 [12] | AC50 [13] | AC50 [14]
1 | O=c1[nH]c2ccccc2n1CCCN1CCN(C(c2ccccc2)c2ccccc2)CC1 [OXATOMIDE] | 15 µM | 17 µM | 22 µM | > 30 µM | 3.5 µM | > 30 µM | 8.8 µM | > 30 µM | 1.2 µM | > 30 µM | 0.9 µM | 1.2 µM | > 30 µM | –
2 | CC1=C(/C=C/C(C)=C/C=C/C(C)=C/CO)C(C)(C)CCC1 [RETINOL] | > 10 µM | > 30 µM | > 10 µM | > 10 µM | > 30 µM | > 10 µM | > 10 µM | > 10 µM | > 10 µM | > 30 µM | > 10 µM | > 30 µM | > 10 µM | > 10 µM
3 | NS(=O)(=O)c1cc2c(cc1Cl)N=C(CSCc1ccccc1)NS2(=O)=O [BENZTHIAZIDE] | > 10 µM | > 10 µM | > 10 µM | > 10 µM | > 30 µM | > 10 µM | > 10 µM | > 10 µM | > 10 µM | > 30 µM | > 10 µM | > 30 µM | > 30 µM | > 10 µM
4 | COc1ccc(CN2CCN(C(c3ccc(F)cc3)c3ccc(F)cc3)CC2)c(OC)c1OC [LOMERIZINE] | 17 µM | > 30 µM | > 30 µM | > 30 µM | > 30 µM | > 30 µM | 27 µM | > 30 µM | 21 µM | > 30 µM | 16 µM | 9.7 µM | > 30 µM | –
5 | CC(C)[C@@H](C)/C=C/[C@@H](C)[C@H]1CC[C@H]2/C(=C/C=C3\C[C@@H](O)CC[C@@H]3C)CCC[C@]12C [DIHYDROTACHYSTEROL] | > 10 µM | > 10 µM | > 10 µM | > 10 µM | > 30 µM | > 10 µM | > 10 µM | > 10 µM | > 10 µM | > 30 µM | > 10 µM | > 30 µM | > 10 µM | > 10 µM
6 | CCCC(C)(COC(N)=O)COC(N)=O [MEPROBAMATE] | > 10 µM | > 10 µM | > 10 µM | > 10 µM | > 30 µM | > 10 µM | > 10 µM | > 10 µM | > 10 µM | > 10 µM | > 10 µM | > 30 µM | > 30 µM | > 10 µM
7 | CC(=O)c1ccc(S(=O)(=O)NC(=O)NC2CCCCC2)cc1 [ACETOHEXAMIDE] | > 10 µM | > 10 µM | > 10 µM | > 10 µM | > 30 µM | > 10 µM | > 10 µM | > 10 µM | > 30 µM | > 10 µM | > 10 µM | > 30 µM | > 10 µM | > 10 µM
8 | O=C(O)c1ccc(NC(=O)[C@H](Cc2ccc(O)cc2)NC(=O)c2ccccc2)cc1 [BENTIROMIDE] | > 10 µM | > 10 µM | > 10 µM | > 10 µM | > 30 µM | > 10 µM | > 10 µM | > 10 µM | > 10 µM | > 10 µM | > 10 µM | > 30 µM | > 10 µM | > 10 µM
9 | O=C(c1cc(Cc2n[nH]c(=O)c3ccccc23)ccc1F)N1CCN(C(=O)C2CC2)CC1 [OLAPARIB] | > 30 µM | > 30 µM | > 30 µM | > 30 µM | > 30 µM | > 30 µM | > 30 µM | > 10 µM | > 10 µM | > 30 µM | > 30 µM | > 30 µM | > 10 µM | > 30 µM
10 | COc1cc(C)c(/C=C/C(C)=C/C=C/C(C)=C/C(=O)O)c(C)c1C [ACITRETIN] | > 10 µM | > 10 µM | > 10 µM | > 10 µM | > 30 µM | > 10 µM | > 10 µM | > 10 µM | > 10 µM | > 30 µM | > 10 µM | > 30 µM | > 10 µM | > 10 µM
11 | C=CC[N+]1([C@H]2C[C@H]3[C@@H]4CC[C@H]5C[C@H](O)[C@@H](N6CCOCC6)C[C@]5(C)[C@H]4CC[C@]3(C)[C@H]2OC(C)=O)CCCC1 [ROCURONIUM] | > 30 µM | 1.2 µM | > 30 µM | > 30 µM | > 30 µM | > 30 µM | > 30 µM | > 30 µM | > 30 µM | > 30 µM | > 30 µM | – | > 30 µM | > 30 µM
12 | C=CCN1CCc2nc(N)sc2CC1 [TALIPEXOLE] | > 30 µM | > 30 µM | > 30 µM | > 30 µM | > 30 µM | > 30 µM | > 30 µM | > 30 µM | 24 µM | > 30 µM | > 30 µM | – | > 30 µM | –
13 | c1ccc(C2(N3CCCCC3)CCCCC2)cc1 [PHENCYCLIDINE] | > 30 µM | > 30 µM | > 30 µM | > 30 µM | > 30 µM | > 30 µM | > 30 µM | 0.288 µM | > 30 µM | > 30 µM | 2.6 µM | – | > 30 µM | –
14 | CC(=O)[C@H]1CC[C@H]2[C@@H]3C[C@H](C)C4=CC(=O)CC[C@]4(C)[C@H]3[C@@H](O)C[C@]12C [MEDRYSONE] | > 10 µM | > 10 µM | > 10 µM | > 10 µM | > 30 µM | > 10 µM | > 10 µM | > 10 µM | > 10 µM | 0.0027 µM | > 10 µM | > 30 µM | > 10 µM | > 10 µM
